Laboratory results from patent EP0981626B1, “FUNGICIDAL TEST METHOD” (Bayer CropScience Limited, priority 1997, dated 1998).

Key:
[1] = system: recombinant IPMDH (3-isopropylmalate dehydrogenase); experiment: biochemical screen for inhibitors of recombinant IPMDH (spectrometric NADH assay at 340 nm); set-up: species or system Septoria nodorum; details: buffer as control; for % inhibition at 3.3 ppm: first test; for % inhibition at 3.3 ppm, Repeat: repeat test
Protocol: The recombinant IPMDH was used in a biochemical screen for inhibitors of 3-isopropylmalate dehydrogenase as follows. The assay was originally described by Parsons in 1969 (Purification and properties of β-IPMD, Parsons et al., Journal of Biological Chemistry, 244, (4), 996-1003. It is an spectrometric assay, based on the reduction of coenzyme […] measured at 340 nm. Prior to any assay the rate of production of a given unit of β-NADH was determined and only the rate of the initial linear fraction of the progress curve was taken for the evaluated assay. The reagents for the assay are: the enzyme 3-Isopropyl malate dehydrogenase, KH2PO4, MnCl2, β-NAD (nicotinamide adenine dinucleotide) and the substrate isopropylmalate. […] The mixture is incubated for two minutes at 25°C and the reaction is started by adding 140µl buffer containing the substrate IPM, KH2PO4, MnCl2, β-NAD at pH8. The rate of the increase β-NADH is monitored each minute and five data points are collected. The inhibition of the potential inhibitors are expressed in %-inhibition using buffer as a control. […] Tabulated below are a selection of compounds which gave a significant inhibition of recombinant IPMDH. These compounds were also able to inhibit Septoria nodorum in vitro. […] Approximately 10^5 conidia of Septoria nodorum BS171 were inoculated to Cz medium with the compounds and the effect on fungal growth assessed after six days.

Septoria nodorum (BS171) = experiment: in vitro inhibition of fungal growth in Cz medium; assay type: cell-based; details: Parastagonospora nodorum, 144 h; tested at 10, 25, 50, 75, 100, 150, 200 and 250 ppm in Cz medium; growth assessed after six days
Excerpt: Tabulated below are a selection of compounds which gave a significant inhibition of recombinant IPMDH. These compounds were also able to inhibit Septoria nodorum in vitro. […] Approximately 10^5 conidia of Septoria nodorum BS171 were inoculated to Cz medium with the compounds and the effect on fungal growth assessed after six days.

Erysiphe cichoracearum = experiment: in vivo fungicidal activity on test plants, visually estimated infection; details: 500 ppm
Plasmopara viticola = experiment: as above
Phytophthora infestans = assay type: in vivo; details: 500 ppm; late tomato or potato blight; score = % control class
[2] = cucumber powdery mildew, score = % control class
[3] = 125 ppm, vine downy mildew, score = % control class

Row | Structure (SMILES) | % inhibition at 3.3 ppm [1] [%] | % inhibition at 3.3 ppm, Repeat [1] [%] | MIC (Septoria nodorum (BS171)) [µg/mL] | Score (Erysiphe cichoracearum; [2]) | Score (Plasmopara viticola; [3]) | Score (Phytophthora infestans) | Score (Erysiphe cichoracearum) | Score (Plasmopara viticola; 125 ppm) | Score (Plasmopara viticola; 500 ppm, vine downy mildew, score = % control class)
1 | O=C(Oc1ccccc1)n1c(C(F)(F)F)nc2cc(Br)c(Cl)cc21 [Compound 1, phenyl 5-bromo-6-chloro-2-trifluoromethyl-benzimidazole-1-carboxylate] | 33 | 56 | 100 to 150 | 6 (75-84) | 5 (@125 ppm) (65-74) | 7 (85-94) | – | – | –
2 | N#Cc1sc2c(=O)c3ccccc3c(=O)c=2sc1C#N [Compound 4, 5,10-dioxo-5,10-dihydronaphtho-[2,3-b][1,4]dithiine-2,3-dicarbonitrile] | 41 | 66 | 0 to 10 | – | – | 7 (85-94) | 0 (key: 0-20; 1: 20-34; 2: 35-44; 3: 45-54; 55-64; 65-74; 6: 75-84; 7: 85-94; 8: 95-100) | 7 (@125 ppm) (key: 0-20; 1: 20-34; 2: 35-44; 3: 45-54; 55-64; 65-74; 6: 75-84; 7: 85-94; 8: 95-100) | –
3 | CC(C)CCC(C)OC(=O)n1c(C(F)(F)F)nc2c(Br)c(Br)c(Br)cc21 (centres unmarked) [Compound 3, 1,4-dimethylpentyl 4,5,6-tribromo-2-trifluoromethyl-benzimidazole-1-carboxylate] | 57 | 20 | 100 to 150 | 8 (95-100) | – | – | – | – | 8 (95-100)
4 | O=C(Oc1ccccc1)n1c(C(F)(F)F)nc2c(Br)c(Br)c(Br)cc21 [Compound 2, phenyl 4,5,6-tribromo-2-trifluoromethyl-benzimidazole-1-carboxylate] | 33 | 42 | > 250 | 7 (85-94) | 6 (@125 ppm) (75-84) | 6 (75-84) | – | – | –
